System: 171881-019-R-J1-PDC tumor spheroids, viability
Test: Anticancer human tumor 171881-019-R-J1-PDC patient-derived invasive breast carcinoma cell line growth inhibition [GQUAD]
Details: spheroids with HUVEC and MSC; for IC50: curve of first compound; for viability, T/C: stronger effect = lower value
Outline: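 Multi-cell-type spheroids of tumor cells with HUVEC and mesenchymal stem cells, treated with drug combinations. Concentrations descend in half-log steps from near clinical Cmax, or from 10 microM where Cmax is unknown; viability read-out.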

[1] = second compound 0.0316 µM, first compound 0.0316 µM
[2] = second compound 0.0316 µM, first compound 0.1 µM
[3] = second compound 0.0316 µM, first compound 0.316 µM
[4] = second compound 0.0316 µM, first compound 1 µM
[5] = second compound 0.0316 µM, first compound 3.16 µM
[6] = second compound 0.0316 µM, first compound 10 µM
[7] = second compound 0.1 µM, first compound 0.0316 µM
[8] = second compound 0.1 µM, first compound 0.1 µM
[9] = second compound 0.1 µM, first compound 0.316 µM
[10] = second compound 0.1 µM, first compound 1 µM
[11] = second compound 0.1 µM, first compound 3.16 µM
[12] = second compound 0.1 µM, first compound 10 µM
[13] = second compound 0.316 µM, first compound 0.0316 µM
[14] = second compound 0.316 µM, first compound 0.1 µM
[15] = second compound 0.316 µM, first compound 0.316 µM
[16] = second compound 0.316 µM, first compound 1 µM
[17] = second compound 0.316 µM, first compound 3.16 µM
[18] = second compound 0.316 µM, first compound 10 µM
[19] = second compound 1 µM, first compound 0.0316 µM
[20] = second compound 1 µM, first compound 0.1 µM
[21] = second compound 1 µM, first compound 0.316 µM
[22] = second compound 1 µM, first compound 1 µM
[23] = second compound 1 µM, first compound 3.16 µM
[24] = second compound 1 µM, first compound 10 µM
[25] = second compound 3.16 µM, first compound 0.0316 µM
[26] = second compound 3.16 µM, first compound 0.1 µM
[27] = second compound 3.16 µM, first compound 0.316 µM
[28] = second compound 3.16 µM, first compound 1 µM
[29] = second compound 3.16 µM, first compound 3.16 µM
[30] = second compound 3.16 µM, first compound 10 µM
[31] = second compound 10 µM, first compound 0.0316 µM
[32] = second compound 10 µM, first compound 0.1 µM
[33] = second compound 10 µM, first compound 0.316 µM
[34] = second compound 10 µM, first compound 1 µM
[35] = second compound 10 µM, first compound 3.16 µM
[36] = second compound 10 µM, first compound 10 µM
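Further: spheroids exposed to compounds for 7 days.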
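Wherever viability, T/C is given: 100% = DMSO vehicle control viability.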

Question: For `C=CC(=O)N1CCN(c2nc(=O)n(-c3c(C)ccnc3C(C)C)c3nc(-c4c(O)cccc4F)c(F)cc23)C(C)C1` (stereo unspecified) + CN(C)c1ccc(Nc2c3ccc(NC(=O)CCN4CCCC4)cc3nc3cc(NC(=O)CCN4CCCC4)ccc23)cc1, which IC50 (second compound 0.0316 µM) is on record?
Answer: > 10 µM

Question: And the IC50 (second compound 0.1 µM)?
Answer: > 10 µM

Question: What about the IC50 (second compound 0.316 µM) of the same molecule?
Answer: 7.36 µM

Question: And the IC50 (second compound 1 µM)?
Answer: < 0.0316 µM

Question: And the IC50 (second compound 3.16 µM)?
Answer: < 0.0316 µM

Question: What about the IC50 (second compound 10 µM) of the same molecule?
Answer: < 0.0316 µM

Question: What about the viability, T/C [1] of the same molecule?
Answer: 98.3%

Question: And the viability, T/C [2]?
Answer: 104%

Question: What about the viability, T/C [3] of the same molecule?
Answer: 102%

Question: What about the viability, T/C [4] of the same molecule?
Answer: 117%

Question: And the viability, T/C [5]?
Answer: 99.3%

Question: And the viability, T/C [6]?
Answer: 53.5%

Question: And the viability, T/C [7]?
Answer: 94.8%

Question: And the viability, T/C [8]?
Answer: 115%

Question: What about the viability, T/C [9] of the same molecule?
Answer: 111%

Question: What about the viability, T/C [10] of the same molecule?
Answer: 119%

Question: What about the viability, T/C [11] of the same molecule?
Answer: 96.9%

Question: And the viability, T/C [12]?
Answer: 59.3%

Question: And the viability, T/C [13]?
Answer: 79.3%

Question: What about the viability, T/C [14] of the same molecule?
Answer: 75.8%

Question: And the viability, T/C [15]?
Answer: 69.8%

Question: And the viability, T/C [16]?
Answer: 70%

Question: What about the viability, T/C [17] of the same molecule?
Answer: 70.6%

Question: What about the viability, T/C [18] of the same molecule?
Answer: 42.9%

Question: And the viability, T/C [19]?
Answer: 19%

Question: What about the viability, T/C [20] of the same molecule?
Answer: 16%

Question: What about the viability, T/C [21] of the same molecule?
Answer: 18.6%

Question: What about the viability, T/C [22] of the same molecule?
Answer: 17.1%

Question: What about the viability, T/C [23] of the same molecule?
Answer: 15.3%

Question: What about the viability, T/C [24] of the same molecule?
Answer: 10.2%

Question: What about the viability, T/C [25] of the same molecule?
Answer: 1.61%

Question: What about the viability, T/C [26] of the same molecule?
Answer: 1.65%

Question: What about the viability, T/C [27] of the same molecule?
Answer: 1.29%

Question: What about the viability, T/C [28] of the same molecule?
Answer: 1.13%

Question: And the viability, T/C [29]?
Answer: 2.03%

Question: And the viability, T/C [30]?
Answer: 1.73%

Question: And the viability, T/C [31]?
Answer: 0.27%

Question: What about the viability, T/C [32] of the same molecule?
Answer: 0.5%

Question: And the viability, T/C [33]?
Answer: 0.42%

Question: And the viability, T/C [34]?
Answer: 0.9%

Question: What about the viability, T/C [35] of the same molecule?
Answer: 0.45%

Question: And the viability, T/C [36]?
Answer: 0.56%

Question: `Cc1cccc(N(C)C(=O)C2C(O)CCN2c2nc(C)cc(C(F)(F)F)c2C#N)c1` (stereo unspecified) + CN(C)c1ccc(Nc2c3ccc(NC(=O)CCN4CCCC4)cc3nc3cc(NC(=O)CCN4CCCC4)ccc23)cc1 was tested. Which IC50 (second compound 0.0316 µM) did it give?
Answer: > 10 µM

Question: What about the IC50 (second compound 0.1 µM) of the same molecule?
Answer: > 10 µM

Question: And the IC50 (second compound 0.316 µM)?
Answer: 7.84 µM

Question: And the IC50 (second compound 1 µM)?
Answer: < 0.0316 µM

Question: And the IC50 (second compound 3.16 µM)?
Answer: < 0.0316 µM

Question: What about the IC50 (second compound 10 µM) of the same molecule?
Answer: < 0.0316 µM

Question: What about the viability, T/C [1] of the same molecule?
Answer: 87.6%

Question: What about the viability, T/C [2] of the same molecule?
Answer: 91.2%

Question: What about the viability, T/C [3] of the same molecule?
Answer: 103%

Question: And the viability, T/C [4]?
Answer: 101%

Question: What about the viability, T/C [5] of the same molecule?
Answer: 87.6%

Question: And the viability, T/C [6]?
Answer: 79.2%

Question: What about the viability, T/C [7] of the same molecule?
Answer: 99.2%

Question: What about the viability, T/C [8] of the same molecule?
Answer: 102%

Question: And the viability, T/C [9]?
Answer: 96.4%

Question: What about the viability, T/C [10] of the same molecule?
Answer: 105%

Question: What about the viability, T/C [11] of the same molecule?
Answer: 85.6%

Question: What about the viability, T/C [12] of the same molecule?
Answer: 75.2%

Question: And the viability, T/C [13]?
Answer: 88.3%

Question: And the viability, T/C [14]?
Answer: 93.5%

Question: And the viability, T/C [15]?
Answer: 85.2%

Question: And the viability, T/C [16]?
Answer: 75.1%

Question: And the viability, T/C [17]?
Answer: 75.7%

Question: What about the viability, T/C [18] of the same molecule?
Answer: 43.3%

Question: And the viability, T/C [19]?
Answer: 26.3%

Question: And the viability, T/C [20]?
Answer: 23.1%

Question: What about the viability, T/C [21] of the same molecule?
Answer: 31.7%

Question: What about the viability, T/C [22] of the same molecule?
Answer: 23.1%

Question: What about the viability, T/C [23] of the same molecule?
Answer: 19.1%

Question: And the viability, T/C [24]?
Answer: 9.15%

Question: And the viability, T/C [25]?
Answer: 1.62%

Question: And the viability, T/C [26]?
Answer: 1.75%

Question: And the viability, T/C [27]?
Answer: 1.5%

Question: And the viability, T/C [28]?
Answer: 1.54%

Question: And the viability, T/C [29]?
Answer: 1.07%

Question: And the viability, T/C [30]?
Answer: 1.26%

Question: What about the viability, T/C [31] of the same molecule?
Answer: 0.45%

Question: What about the viability, T/C [32] of the same molecule?
Answer: 0.54%

Question: And the viability, T/C [33]?
Answer: 0.26%

Question: And the viability, T/C [34]?
Answer: 0.48%

Question: And the viability, T/C [35]?
Answer: 0.65%

Question: What about the viability, T/C [36] of the same molecule?
Answer: 0.44%

Question: Which IC50 (second compound 0.0316 µM) does the source give for `O=C(c1cc(Cc2n[nH]c(=O)c3ccccc23)ccc1F)N1CCN(C(=O)C2CC2)CC1` + CN(C)c1ccc(Nc2c3ccc(NC(=O)CCN4CCCC4)cc3nc3cc(NC(=O)CCN4CCCC4)ccc23)cc1 here?
Answer: > 10 µM

Question: What about the IC50 (second compound 0.1 µM) of the same molecule?
Answer: > 10 µM

Question: What about the IC50 (second compound 0.316 µM) of the same molecule?
Answer: > 10 µM

Question: And the IC50 (second compound 1 µM)?
Answer: < 0.0316 µM

Question: What about the IC50 (second compound 3.16 µM) of the same molecule?
Answer: < 0.0316 µM

Question: What about the IC50 (second compound 10 µM) of the same molecule?
Answer: < 0.0316 µM

Question: And the viability, T/C [1]?
Answer: 98.5%

Question: And the viability, T/C [2]?
Answer: 98.5%

Question: And the viability, T/C [3]?
Answer: 107%

Question: And the viability, T/C [4]?
Answer: 96.3%

Question: And the viability, T/C [5]?
Answer: 90.7%

Question: What about the viability, T/C [6] of the same molecule?
Answer: 94.2%

Question: What about the viability, T/C [7] of the same molecule?
Answer: 107%

Question: And the viability, T/C [8]?
Answer: 95.4%

Question: And the viability, T/C [9]?
Answer: 91.1%

Question: What about the viability, T/C [10] of the same molecule?
Answer: 109%

Question: And the viability, T/C [11]?
Answer: 91.7%

Question: And the viability, T/C [12]?
Answer: 86.3%

Question: What about the viability, T/C [13] of the same molecule?
Answer: 86.5%

Question: What about the viability, T/C [14] of the same molecule?
Answer: 94.1%

Question: What about the viability, T/C [15] of the same molecule?
Answer: 80.3%

Question: And the viability, T/C [16]?
Answer: 78.5%

Question: And the viability, T/C [17]?
Answer: 82%

Question: And the viability, T/C [18]?
Answer: 60.8%

Question: And the viability, T/C [19]?
Answer: 31.7%

Question: And the viability, T/C [20]?
Answer: 19.5%

Question: And the viability, T/C [21]?
Answer: 25.3%

Question: What about the viability, T/C [22] of the same molecule?
Answer: 18.4%

Question: And the viability, T/C [23]?
Answer: 20.2%

Question: And the viability, T/C [24]?
Answer: 17.3%

Question: What about the viability, T/C [25] of the same molecule?
Answer: 1.55%

Question: And the viability, T/C [26]?
Answer: 1.44%

Question: What about the viability, T/C [27] of the same molecule?
Answer: 1.96%

Question: And the viability, T/C [28]?
Answer: 1.41%

Question: And the viability, T/C [29]?
Answer: 1.97%

Question: What about the viability, T/C [30] of the same molecule?
Answer: 1.2%

Question: And the viability, T/C [31]?
Answer: 0.28%

Question: What about the viability, T/C [32] of the same molecule?
Answer: 0.36%

Question: And the viability, T/C [33]?
Answer: 0.35%

Question: And the viability, T/C [34]?
Answer: 0.57%

Question: What about the viability, T/C [35] of the same molecule?
Answer: 0.69%

Question: What about the viability, T/C [36] of the same molecule?
Answer: 0.32%

From PubChem BioAssay AID2060498 (Molecular Pharmacology Branch, DTP, NCI, 2025)
